# Legend:
# MRSA ATCC 33592 = experiment: MIC, broth microdilution, MRSA ATCC 33592; type: cell-based, methicillin-resistant S. aureus; settings: Staphylococcus aureus
# Protocol: All MRSA isolates were acquired from BEI Resources. The remaining bacteria were purchased from the American Type Culture Collection (ATCC).
# (§1) Bacteria were cultured in cation-adjusted Mueller Hinton Broth (for strains in Tables 1-3) or Brain Heart Infusion broth (for Enterococcus faecium) or Tryptic Soy Broth (all other bacteria) in a 96-well plate at 37° C. for at least 20 hours. The MIC was classified as the lowest concentration where no visual growth of bacteria was observed. The minimum bactericidal concentration (MBC) was tested by spotting 4 μL from wells with no growth onto Tryptic Soy Agar (TSA) plates. Plates were incubated at 37° C. for at least 18 hours before recording the MBC.
# [1] = system: L. monocytogenes ATCC 19115; experiment: MIC, broth microdilution, L. monocytogenes ATCC 19115; type: cell-based; settings: Listeria monocytogenes, ATCC19115
# Protocol: as §1
# [2] = system: C. difficile NR-32891 (P13); experiment: MIC against C. difficile NR-32891 (P13); type: cell-based; settings: Clostridioides difficile; read-out: MIC C. difficile NR-32891 (P13)
# Protocol: as §1
# [3] = system: C. difficile NR-13432 (isolate 6); experiment: MIC against C. difficile NR-13432 (isolate 6); type: cell-based; settings: Clostridioides difficile; read-out: MIC C. difficile NR-13432 (isolate 6)
# Protocol: as §1
# [4] = system: C. difficile NR-32904 (P30); experiment: MIC against C. difficile NR-32904 (P30); type: cell-based; settings: Clostridioides difficile; read-out: MIC C. difficile NR-32904 (P30)
# Protocol: as §1
# [5] = system: C. difficile NR-13435 (isolate 9); experiment: MIC against C. difficile NR-13435 (isolate 9); type: cell-based; settings: Clostridioides difficile; read-out: MIC C. difficile NR-13435 (isolate 9)
# Protocol: as §1
# [6] = system: C. difficile ATCC BAA 1801; experiment: MIC against C. difficile ATCC BAA 1801; type: cell-based; settings: Clostridioides difficile, BAA1801; read-out: MIC C. difficile ATCC BAA 1801
# Protocol: as §1
# E. faecalis ATCC 29212 = experiment: MIC, broth microdilution, E. faecalis ATCC 29212; type: cell-based; settings: Enterococcus faecalis, ATCC29212
# Protocol: as §1
# MRSA USA300 cells = experiment: Time-kill assay; type: cell-based; settings: for Δlog2 CFU/mL: MRSA USA300, 3× MIC or 6× MIC, up to 24 hours
# Protocol: The time-kill analysis was performed as previously described^29. […] Aliquots (100 μL) were collected from each treatment after 0, 2, 4, 8, 12, and 24 hours of incubation at 37° C. and subsequently serially diluted in phosphate-buffered saline (PBS). Bacteria were then transferred to TSA plates and incubated at 37° C. for 18-20 hours before viable CFU/mL was determined (see FIG. 2).
# S. aureus = experiment: MIC, broth microdilution, S. aureus; type: cell-based; settings: Staphylococcus aureus
# Protocol: as §1
# VRE ATCC 51575 = experiment: MIC, broth microdilution, VRE ATCC 51575; type: cell-based; settings: Enterococcus
# Protocol: as §1
# [7] = system: C. difficile NR-32895 (P19); experiment: MIC against C. difficile NR-32895 (P19); type: cell-based; settings: Clostridioides difficile; read-out: MIC C. difficile NR-32895 (P19)
# Protocol: as §1
# C. difficile ATCC 43255 = experiment: MIC against C. difficile ATCC 43255; type: cell-based; settings: Clostridioides difficile, ATCC43255; read-out: MIC C. difficile ATCC 43255
# Protocol: as §1
# [8] = system: C. difficile NR-32883 (P2); experiment: MIC against C. difficile NR-32883 (P2); type: cell-based; settings: Clostridioides difficile; read-out: MIC C. difficile NR-32883 (P2)
# Protocol: as §1
# [9] = system: Neisseria gonorrhea strain 181; experiment: MIC against Neisseria gonorrhea strain 181; type: cell-based
# Protocol: as §1
Structure (SMILES),MIC (MRSA ATCC 33592) [µg/mL],MIC [1] [µg/mL],MIC [2] [µg/mL],MIC [3] [µg/mL],MIC [4] [µg/mL],MIC [5] [µg/mL],MIC [6] [µg/mL],MIC (E. faecalis ATCC 29212) [µg/mL],Bactericidal/Bacteriostatic (MRSA USA300 cells),Δlog2 CFU/mL (MRSA USA300 cells),MIC (S. aureus) [µg/mL],MIC (VRE ATCC 51575) [µg/mL],MIC [7] [µg/mL],MIC (C. difficile ATCC 43255) [µg/mL],MIC [8] [µg/mL],MIC [9] [µg/mL]
"O=C(Nc1nnc(-c2cccs2)o1)c1ccc(OC(F)(F)F)cc1 [HSGN-145, N-(5-(thiophen-2-yl)-1,3,4-oxadiazol-2-yl)-4-(trifluoromethoxy)benzamide]",1,8,2,0.5,1,0.5,0.5,> 8,Bacteriostatic,0.69,1,8,1,0.5,1,
"O=C(Nc1nnc(-c2cccc(Cl)c2)o1)c1ccc(SC(F)(F)F)cc1 [HSGN-204, N-(5-(3-chlorophenyl)-1,3,4-oxadiazol-2-yl)-4-((trifluoromethyl)thio)benzamide]",0.125,0.125,0.03,0.03,0.015,0.007,0.03,0.25,,,0.125,0.25,0.007,0.003,0.003,0.25
"O=C(Nc1nnc(-c2ccc(Cl)s2)o1)c1ccc(SC(F)(F)F)cc1 [HSGN-210, N-(5-(5-chlorothiophen-2-yl)-1,3,4-oxadiazol-2-yl)-4-((trifluoromethyl)thio)benzamide]",0.25,0.25,0.06,0.015,0.06,0.003,0.06,0.5,,,0.25,0.5,0.03,0.007,0.003,0.5
"O=C(Nc1nnc(-c2ccc(C(F)(F)F)cc2)o1)c1ccc(SC(F)(F)F)cc1 [HSGN-203, N-(5-(4-(trifluoromethyl)phenyl)-1,3,4-oxadiazol-2-yl)-4-((trifluoromethyl)thio)benzamide]",0.25,0.5,0.125,0.125,0.125,0.06,0.125,1,,,0.25,0.5,0.06,0.25,0.06,0.5
"O=C(Nc1nnc(-c2cccs2)o1)c1ccc(S(F)(F)(F)(F)F)cc1 [HSGN-144, 4-(pentafluoro-sulfanyl)-N-(5-(thiophen-2-yl)-1,3,4-oxadiazol-2-yl)benzamide]",0.5,1,0.125,0.015,0.125,0.015,0.03,2,Bactericidal,3.96,0.25,2,0.06,0.125,0.003,
"O=C(Nc1nnc(-c2ccc(Cl)s2)o1)c1ccc(OC(F)(F)F)cc1 [HSGN-238, N-(5-(5-chlorothiophen-2-yl)-1,3,4-oxadiazol-2-yl)-4-(trifluoromethoxy)benzamide]",0.25,0.5,0.06,0.03,0.015,0.015,0.03,1,,,0.25,1,0.015,0.06,0.007,0.125
"O=C(Nc1nnc(-c2cccc(F)c2)o1)c1ccc(SC(F)(F)F)cc1 [HSGN-205, N-(5-(3-fluorophenyl)-1,3,4-oxadiazol-2-yl)-4-((trifluoromethyl)thio)benzamide]",0.25,1,0.03,0.03,0.015,0.007,0.03,2,,,0.5,4,0.007,0.003,0.003,0.25
"O=C(Nc1nnc(-c2cc(Cl)cc(Cl)c2)o1)c1ccc(SC(F)(F)F)cc1 [HSGN-218, N-(5-(3,5-dichlorophenyl)-1,3,4-oxadiazol-2-yl)-4-((trifluoromethyl)thio)benzamide]",0.0625,0.125,0.007,0.03,0.007,0.003,0.03,0.25,,,0.0625,0.25,0.007,0.015,0.007,0.125
"O=C(Nc1nnc(-c2cccs2)o1)c1ccc(SC(F)(F)F)cc1 [HSGN-148, N-(5-(thiophen-2-yl)-1,3,4-oxadiazol-2-yl)-4-((trifluoromethyl)thio)benzamide]",0.5,2,0.5,0.5,0.5,0.5,0.5,4,Bactericidal,4.2,1,4,0.5,0.5,0.5,0.06

# — patent publication US20220249447A1, “CF3-, OCF3-, SCF3-, and SF5-Containing Antibacterial Agents” (Purdue Research Foundation, priority 2019, published 2022)
